The source of these data is publication PMC7708426, “Identification of potential TNF-α inhibitors: from in silico to in vitro studies” (Scientific Reports, 2020).

This experiment concerns TNF-α. As to the kind of experiment: TNF-α inhibition in LPS-activated THP-1 cells (Human TNF-α ELISA of supernatants). It is filed as cell-based. The note with it: PMA-differentiated THP-1 cells activated with 50 ng/mL LPS, 4 h, mean ± SEM of triplicate. The procedure:
THP-1 cells (Human monocytic leukemia cells) were obtained from Biobank facility, ICCBS, University of Karachi, which was purchased from the ECACC (European Collection of Cell Cultures, UK). The cells were cultured in RPMI-1640, supplemented with 10% FBS (fetal bovine serum), 50 µmol/L mercaptoethanol (Merck, Damstadt, Germany), 5.5 mmol/L glucose (BioM Laboratories, Chemical Division, Malaysia), 2 mmol/L; L-glutamine (PAA Laboratories, GmbH, Pasching, Austria), 10 mmol/L HEPES (MP Biomedicals, lLLKIRCH, France) and 1 mmol/L sodium pyruvate (GIBCO, Grand Island, NY, USA). Cells were harvested and 2 × 10^5 cells/mL were then added to 24-well tissue culture plates. Differentiation of cells was performed by adding 20 ng/mL of phorbol myristate acetate (PMA) (SERVA, Heidelberg, Germany), and by incubation at 37 °C for 24 h in 5% CO2. […] The supernatants were analyzed for the level of TNF-α using Human TNF-α ELISA Kit (R&D Systems, Minneapolis, USA).
Briefly the working concentration of 4 μg/mL in PBS from 720 μg/mL of mouse anti-human TNF-α capture antibodies were used for coating of 96 well ELISA plate. […] The reaction was stopped by adding 50 μL of stop solution (2 N H2SO4) and plate was then read at wavelength of 450 nm in ELISA reader (ELX800 NB, DIA LAB, Wr. Neudrof, Austria).

The IC50 is the midpoint of a concentration-inhibition curve. With `CC(=O)CCCCn1c(=O)c2c(ncn2C)n(C)c1=O` [Pentoxifylline], half-maximal inhibition (IC50) required 341 ± 7.54 µM.
